Test results as given in PubChem BioAssay (NCI).
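Interpolation was linear, between the two tested concentrations surrounding the appropriate level; five concentrations were tested over 48 hours in 96-well plates. GI50 marks 50% less growth. TGI: concentration producing complete growth inhibition.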

Key:
Experiment in all cases: NCI tumour cell line growth inhibition, 48 h
HL-60(TB) leukemia = system: HL-60(TB) leukemia
OVCAR-3 ovarian = system: OVCAR-3 ovarian
TK-10 renal = system: TK-10 renal
SNB-75 CNS = system: SNB-75 CNS
IGROV1 ovarian = system: IGROV1 ovarian
HOP-62 NSCLC = system: HOP-62 NSCLC
SK-OV-3 ovarian = system: SK-OV-3 ovarian
ACHN renal = system: ACHN renal
K-562 leukemia = system: K-562 leukemia
CAKI-1 renal = system: CAKI-1 renal

Compound | TGI (HL-60(TB) leukemia) [µM] | TGI (OVCAR-3 ovarian) [µM] | TGI (TK-10 renal) [µM] | TGI (SNB-75 CNS) [µM] | TGI (IGROV1 ovarian) [µM] | TGI (HOP-62 NSCLC) [µM] | TGI (SK-OV-3 ovarian) [µM] | TGI (ACHN renal) [µM] | TGI (K-562 leukemia) [µM] | GI50 (OVCAR-3 ovarian) [µM] | GI50 (CAKI-1 renal) [µM] | TGI (CAKI-1 renal) [µM] | GI50 (TK-10 renal) [µM] | GI50 (SNB-75 CNS) [µM] | GI50 (HOP-62 NSCLC) [µM] | GI50 (SK-OV-3 ovarian) [µM] | GI50 (ACHN renal) [µM] | GI50 (K-562 leukemia) [µM] | GI50 (HL-60(TB) leukemia) [µM] | GI50 (IGROV1 ovarian) [µM]
CSc1nnc2n1-c1ccccc1SCC2 | > 100 | > 100 | > 100 | > 100 | > 100 | > 100 | > 100 | > 100 | > 100 |  |  |  |  |  |  |  |  |  |  | 
C=C1[C@@H]2CCC(C)(C)[C@H]1CCC(=O)[C@@H]2C(=O)OC | > 100 | > 100 | > 100 |  | > 100 | > 100 |  | > 100 | > 100 |  |  |  |  |  |  |  |  |  |  | 
COc1ccc2c(C(=O)NCCCCCC(=O)O)cc3cc4c(cc3c2c1)OCO4 |  | > 100 | > 100 | 97.9 |  | > 100 | > 100 | > 100 | > 100 | > 100 | > 100 | > 100 | > 100 | 23.9 | > 100 | > 100 | > 100 | > 100 |  | 
COC(=O)c1cccc(COc2ccc([N+](=O)[O-])cc2Cl)c1 |  | > 100 | > 100 | > 100 | > 100 | > 100 | > 100 | > 100 | > 100 |  |  | > 100 |  |  |  |  |  |  |  | 
CCOC(=O)/C(C#N)=C/c1[nH]c(C)c(C)c1C | > 100 | > 100 | > 100 | > 100 | > 100 | > 100 | > 100 |  | > 100 |  |  | > 100 |  |  |  |  |  |  |  | 
OC(c1cc2c(Cl)cc(Cl)cc2c2cc(C(F)(F)F)ccc12)C1CCCCN1 (stereo not given) | 3.71 | 3.52 | 3.63 | 3.36 | 3.58 | 3.47 | 3.26 | 3.65 |  | 1.91 | 1.68 | 3.46 | 2 | 1.79 | 1.72 | 1.67 | 1.82 |  | 1.85 | 1.74
NCCCSCC(=O)O |  | > 100 | > 100 | > 100 | > 100 |  | > 100 | > 100 | > 100 |  |  | > 100 |  |  |  |  |  |  |  | 
Cc1cccc(C)c1NC(=O)/C(CC(=O)CC(c1ccccc1)c1c(O)c2ccccc2oc1=O)=N/O (stereo not given) | > 100 | > 100 | > 100 | > 100 | > 100 | > 100 | > 100 | > 100 |  |  |  | > 100 |  |  |  |  |  |  |  | 
C[C@]12CC[C@H](O)CC1CCC[C@@H]2O (stereo not given in full) | > 100 | > 100 | > 100 | > 100 | > 100 | > 100 | > 100 |  | > 100 |  |  | > 100 |  |  |  |  |  |  |  | 
CC1(C)OC(=O)C(c2ccsc2)C(=O)O1 | > 100 | > 100 | > 100 | > 100 |  | > 100 | > 100 | > 100 | > 100 |  |  | > 100 |  |  |  |  |  |  |  | 
O=c1cc(/C=C/c2ccccc2)c2ccc(O/C(=C\c3ccccc3)c3nc4ccccc4c(=O)o3)cc2o1 | 45.5 | 81.1 | > 100 |  | > 100 | 84.7 | > 100 | 61.7 | > 100 |  |  | > 100 |  |  |  |  |  |  |  | 
CCCCCCCCCCCCCCCc1nc(SCC(=O)O)n[nH]1 | > 100 | > 100 | > 100 |  | > 100 | > 100 | > 100 | > 100 | > 100 |  |  | > 100 |  |  |  |  |  |  |  | 
COc1ccc2c(c1)[n+](=O)c(C(=O)C/C(=N\NC(=O)C[N+](C)(C)C)C(=O)Nc1cc(Cl)ccc1Cl)c(C)n2O | > 100 | > 100 | > 100 | > 100 | > 100 | > 100 |  | > 100 | > 100 |  |  | > 100 |  |  |  |  |  |  |  | 
Nc1c(C(=O)Nc2cccc3ccccc23)sc2nc3c(cc12)CCCCCC3 | > 50 | 2.8 | > 50 | > 50 | > 50 | > 50 | > 50 | > 50 | > 50 | 0.979 |  |  | > 50 | 1.24 | 5.05 | 1.95 | 2.79 | 0.301 | 1.65 | 2.31
COc1cc2c(cc1OC)-c1c(c3ccc([N+](=O)[O-])cc3c(=O)n1CCCBr)C2=O | 10.2 | > 100 | > 100 |  | > 100 | > 100 | > 100 | 36.8 | > 100 | 71.1 | 0.513 | > 100 | > 100 |  | 20.7 | 60.5 | 1.18 | 5.2 | 1.31 | 51.8
CN1CCN(C(=S)N(C(=O)c2ccc(Cl)cc2)C2CCCCC2)CC1 | > 100 | > 100 | > 100 | 85.2 | > 100 |  |  | > 100 | > 100 |  |  |  |  |  |  |  |  |  |  | 
O=C1OC(=O)C2C1C1(c3ccccc3)OC2(c2ccccc2)c2c(Br)c(Br)c(Br)c(Br)c21 (stereo not given) | > 100 | > 100 | > 100 | > 100 | > 100 | > 100 | 74.9 |  | > 100 |  |  | > 100 |  |  |  |  |  |  |  | 
Cn1c(=O)c2nc3sc4ccccc4c(=N)n3c2n(C)c1=O | > 100 |  | > 100 |  | > 100 | > 100 | > 100 | > 100 | > 100 |  |  | > 100 |  |  |  |  |  |  |  | 
Fc1cccc(C2SCc3nc4ccccc4n32)c1 (stereo not given) | 62.8 | > 100 | > 10 | > 100 | > 100 |  | > 100 | > 100 | > 100 |  |  | > 100 |  |  |  |  |  |  |  | 
COc1cc(Cl)c(C)cc1NC(=O)c1cc2ccccc2cc1O | 6.92 | 7.09 | 7.26 | 9.37 | 34.4 | 10.3 |  | 11.4 | 23 | 1.86 | 1.65 | 10.6 | 2.92 | 2.4 | 2.37 |  | 2.67 | 2.82 | 1.89 | 3.04
COc1ccc(/C=N/C2=C(C#N)C(c3ccccc3)c3ccc4ccccc4c3O2)cc1 (stereo not given) | 1.44 | > 100 | > 100 |  | > 100 | > 100 | > 100 | > 100 | > 100 | 0.343 | 0.224 | > 61.8 | 26 |  | 0.373 | 0.539 | 0.69 | 0.23 | 0.321 | 0.403
